Among the data in patent publication US4239768A, “Method for relieving irritable bowel syndrome symptoms” (McNeilab, Inc., priority 1978, dated 1980) are ED50 values, retold here.

Broadly, the ED50 is the dose at which the effect has come halfway, by size or by number of responders.

Structures can show the parent of a compound that is named as a salt. Where two headings read alike, the source gives them in different places.

The test system of the experiment is sensitivity to distension of th colonic wall. The experiment in a line: Glass bead expulsion test (time between rectal insertion and expulsion of bead). It is filed as in vivo, male albino mice. To be noted: Mus musculus, 1 h, drug given one hour prior to glass bead insertion, ED50 = dose causing an activity index of 2. An excerpt:
The disorder is characterized by abdominal pain, diarrhea, constipation and like symptoms caused by excessive sensitivity to distension of the bowel by the presence of intestinal gas and/or fecal material. The extent to which a compound is effective in providing relief may be determined by a test in which a glass bead is inserted into the rectum and the lapse of time between insertion and expulsion of the bead determined. Compounds which are effective in decreasing the sensitivity to distension of th colonic wall delays the expulsion of the bead. The test is carried out with male albino mice of 18-25 grams body weight using groups of five mice for each compound dose tested. The initial screen dose selected for all compounds is 50 milligrams per kilogram of body weight (mg/kg) administered orally in a volume of 0.1 milliliter per 10 grams of body weight. The control groups receive the vehicle, 0.5 percent methocel, used for both oral and intraperitoneal administration. The mice are fasted one hour before testing and the test drugs are given one hour prior to glass bead insertion. At the end of the pretreatment time, the mouse is picked up and held firmly in one hand with his abdomen facing the technician. The glass bead of 3 millimeters in diameter is positioned at the rectum and using a pinching action with a thumb and forefinger, the bead is pushed into the rectum. Then using a glass rod of 3 millimeters in diameter which has been lubricated with 0.5 percent methocel to facilitate insertion, the glass bead is pushed up into the rectum a distance of 2 centimeters using a slow gentle turning motion. The mice are timed as a group using the last mouse inserted as zero time and the number of beads expelled in a group at different timed intervals are recorded. The groups are based on timed intervals of 0 to 5 minutes, 5 to 10 minutes, 10 to 20 minutes, 20 to 40 minutes and greater than 40 minutes. They are given the activity index values of 0, 1, 2, 3 and 4, respectively. Mice who have not expelled their beads by the 40-minute cutoff time are examined for perforations. Those mice whose colons are perforated are eliminated from the group. The sum of the values divided by the number of mice or beads is termed the activity index for the drug tested. The ED50 is determined by regression lines using the method of least squares. The ED50 is arbitrarily assigned as that dose causing an activity index of 2. The results of this test employing intraperitoneal and oral administration of N-aryl-N'-(2-imidazolidinylidene)urea compounds are shown in Table I.

Where [1] appears, read: ip, intraperitoneal, read-out: ED50 Intraperitoneal.

As to `Cl.O=C(N=C1NCCN1)Nc1c(Cl)cccc1Cl` [2,6-diCl-.phi., N-(2,6-Dichlorophenyl)-N'-(2-imidazolidinylidene)urea Hydrochloride], the ED50 is 13.7 mg/kg (oral, read-out: ED50 Per Os) and 7 mg/kg under setting [1].

In the case of `Cc1cccc(Cl)c1NC(=O)N=C1NCCN1.Cl` [2-Cl,6-CH3 -.phi., N-(2-chloro-6-methylphenyl)-N'-(2-imidazolidinylidene)urea hydrochloride], the ED50 stood at 35 mg/kg (oral, read-out: ED50 Per Os) and 8 mg/kg under setting [1].

Regarding `Cc1cccc(C)c1NC(=O)N=C1NCCN1` [2,6-di(CH3)-.phi., N-(2,6-dimethylphenyl)-N'-(2-imidazolidinylidene)urea], the ED50 is, setting by setting: (oral, read-out: ED50 Per Os) 16 mg/kg; under setting [1], 12 mg/kg.

On to `Cl.O=C(N=C1NCCN1)Nc1c(Br)cccc1Br` [2,6-diBr-.phi., N-(2,6-dibromophenyl)-N'-(2-imidazolidinylidene)urea hydrochloride], for which the ED50 came to 38 mg/kg (oral, read-out: ED50 Per Os) and 9 mg/kg under setting [1].

In the case of `CCc1cccc(C)c1NC(=O)N=C1NCCN1` [2-C2 H5,6-CH3 -.phi., N-(2-Ethyl-6-methylphenyl)-N'-(2-imidazolidinylidene)urea. Fumarate (3:2)], the ED50 is, setting by setting: (oral, read-out: ED50 Per Os) 121 mg/kg; under setting [1], 43 mg/kg.
